Experimental data: patent publication US20020016346A1, “Method for enhancing outflow of aqueous humor in treatment of glaucoma” (The Regents University of California, a California …, priority 1994, published 2002)
Read-outs that look alike come from different tables or passages of the source.

What was measured:
[1] = Lipophilicity (log P′), n-octanol/phosphate buffer pH 7.4 shake-flask or RP-HPLC; format: physicochemical
Description: The lipophilicity of a compound is expressed in terms of an octanol:water coefficient determined by the standard technique of radiolabelling the compound and introducing a small amount into equal volumes of octanol and tris buffer (50 mM, pH 7.4). Generally the lipophilicity (log P′) is expressed as the logarithm of the partition coefficient in n-octanol/phosphate buffer, pH 7.4 using the well known shake-flask method as described by Cloux, et al., J. Pharm. Belg., 43:141-151, 1973, which is incorporated herein by reference in its entirety. The coefficient of lipophilicity (log P′) of the compounds useful for topical application to decrease intra-ocular pressure is preferably at least 0.005, and more preferably at least 0.01.
The lipophilicity of the aqueous humor outflow-increasing compounds of this invention can also be determined using a reversed phase, high performance liquid chromatograph (RP-HPLC) system for determination of the log P′ of the drug as described in B. Masereel, et al. (J. Pharm. Pharmacol. 44:589-593, 1992), which is incorporated herein by reference in its entirety. Briefly, a reversed phase column (RP-18) is equilibrated with n-propanol/phosphate buffer, pH 7.4 at a ratio of 30:70). Compounds to be tested are dissolved and eluted with the same solution. A series of standards with a wide range of lipophilicity, as determined by the shake-flask method, is run and a calibration curve is established for each session. KNO3 is injected to determine the void volume and […] is determined, wherein tr is the drug retention time andot is the retention time of NO3-. Calibration curves are calculated using log P′ and log k′ values. Log P′ values of other compounds are obtained by interpolation of the standard curves.

[2] = target: T1, Na+2Cl−K+ co-transporter (Oryctolagus cuniculus, UniProt P55015); assay: Inhibition of short circuit current in perfused cortical thick ascending limb of the loop of Henle; format: cell-based, rabbit; details: concentration blocking 50% of short circuit current
T1 construct: cotransporter system found in the cortical thick ascending limbs of the loop of Henle of mammals; from tissue; host or cells: dissected, perfused cortical thick ascending limb tubules of rabbit kidney
T1 sequence (P55015 1-1099): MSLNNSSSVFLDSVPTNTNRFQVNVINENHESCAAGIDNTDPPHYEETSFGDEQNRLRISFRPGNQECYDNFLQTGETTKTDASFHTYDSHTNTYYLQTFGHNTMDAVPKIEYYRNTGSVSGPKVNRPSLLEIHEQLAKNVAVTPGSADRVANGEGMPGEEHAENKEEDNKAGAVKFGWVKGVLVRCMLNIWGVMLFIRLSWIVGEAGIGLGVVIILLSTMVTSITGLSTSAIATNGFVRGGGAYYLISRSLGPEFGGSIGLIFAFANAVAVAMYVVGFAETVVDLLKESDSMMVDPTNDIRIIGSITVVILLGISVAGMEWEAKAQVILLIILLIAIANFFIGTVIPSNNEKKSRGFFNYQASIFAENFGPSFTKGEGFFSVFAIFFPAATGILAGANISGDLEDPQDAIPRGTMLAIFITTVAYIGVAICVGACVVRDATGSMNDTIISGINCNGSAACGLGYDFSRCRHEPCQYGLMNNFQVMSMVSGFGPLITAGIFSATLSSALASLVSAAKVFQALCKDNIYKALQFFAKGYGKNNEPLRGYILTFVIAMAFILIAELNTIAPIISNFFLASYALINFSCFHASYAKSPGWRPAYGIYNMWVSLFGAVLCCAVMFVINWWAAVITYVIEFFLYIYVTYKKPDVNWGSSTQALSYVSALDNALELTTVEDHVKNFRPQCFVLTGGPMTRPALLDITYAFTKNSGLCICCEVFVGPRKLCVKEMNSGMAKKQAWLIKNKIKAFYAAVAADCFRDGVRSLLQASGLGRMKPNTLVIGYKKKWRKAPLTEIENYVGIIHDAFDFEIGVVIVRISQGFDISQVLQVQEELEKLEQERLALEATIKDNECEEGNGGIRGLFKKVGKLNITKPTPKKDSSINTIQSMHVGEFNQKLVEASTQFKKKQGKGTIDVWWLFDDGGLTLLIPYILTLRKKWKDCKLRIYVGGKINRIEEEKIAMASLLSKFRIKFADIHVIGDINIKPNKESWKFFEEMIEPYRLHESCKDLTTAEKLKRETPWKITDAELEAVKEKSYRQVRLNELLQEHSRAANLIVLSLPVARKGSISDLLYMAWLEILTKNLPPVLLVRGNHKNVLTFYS
Excerpt: B. Burg et al. (Am J. Physiol. 210:1293-1298, 1966) as modified by […] Arch. 390:30-37, 1981) and […] et al. (Pflüger's Arch. 389:175-176, 1981), both of which are incorporated herein by reference in their entireties. In brief, this in vitro test uses the Na-2Cl^- K^+ cotransporter system found in the cortical thick ascending limbs of the loop of Henle of mammals, particularly rabbits, for example, female white New Zealand rabbits. The tubules are dissected and perfused according to the known techniques, but with the rate of perfusion through the lumen kept high (10-20 nl/min) to prevent changes in the ionic composition of the perfusate along the perfused tubule. As control perfusate, a solution containing (mM): NaCl 145; […] KH2PO4 0.4; MgCl2 1; Ca gluconate 1.3; and glucose 5 is used on both sides of the epithelium with pH adjusted to 7.4 The transepithelial potential (Vtc) is recorded continuously on both ends of the tubule. […] The ratio of both values ([…] the equivalent short circuit current Itc. There is a direct relationship between the decrease of Itc and the inhibition of the Na^+2Cl^-K^+ co-transporter by contact with the test compound ([…] et al., Klin. Wochenschr. 61:1019-1027, 1983). For each drug under study, dose-response curves are established by adding compounds at various concentrations to the luminal perfusate with at least three determinations for each concentration. […] Details of this method have been published previously in M. E. O'Donnell, J. Biol. Chem. 264:11559-11566, 1991, which is incorporated herein by reference in its entirety. An illustration of the use of this method is found in Example 1B of this application.

[3] = target: T2, Na—K—Cl cotransport (Bos taurus, UniProt F1MS08); assay: K influx (86Rb) in bovine TM cell monolayers; format: cell-based; details: bovine TM cells; VP 100 nM, NE 10 μM, Ach 1 μM, cAMP 50 μM, cGMP 50 μM, A23187 1 μM, PMA 10 nM, Ca-free medium plus 5 μM BAPTA-AM; control 25.6 ± 0.71
T2 sequence (F1MS08 1-1204): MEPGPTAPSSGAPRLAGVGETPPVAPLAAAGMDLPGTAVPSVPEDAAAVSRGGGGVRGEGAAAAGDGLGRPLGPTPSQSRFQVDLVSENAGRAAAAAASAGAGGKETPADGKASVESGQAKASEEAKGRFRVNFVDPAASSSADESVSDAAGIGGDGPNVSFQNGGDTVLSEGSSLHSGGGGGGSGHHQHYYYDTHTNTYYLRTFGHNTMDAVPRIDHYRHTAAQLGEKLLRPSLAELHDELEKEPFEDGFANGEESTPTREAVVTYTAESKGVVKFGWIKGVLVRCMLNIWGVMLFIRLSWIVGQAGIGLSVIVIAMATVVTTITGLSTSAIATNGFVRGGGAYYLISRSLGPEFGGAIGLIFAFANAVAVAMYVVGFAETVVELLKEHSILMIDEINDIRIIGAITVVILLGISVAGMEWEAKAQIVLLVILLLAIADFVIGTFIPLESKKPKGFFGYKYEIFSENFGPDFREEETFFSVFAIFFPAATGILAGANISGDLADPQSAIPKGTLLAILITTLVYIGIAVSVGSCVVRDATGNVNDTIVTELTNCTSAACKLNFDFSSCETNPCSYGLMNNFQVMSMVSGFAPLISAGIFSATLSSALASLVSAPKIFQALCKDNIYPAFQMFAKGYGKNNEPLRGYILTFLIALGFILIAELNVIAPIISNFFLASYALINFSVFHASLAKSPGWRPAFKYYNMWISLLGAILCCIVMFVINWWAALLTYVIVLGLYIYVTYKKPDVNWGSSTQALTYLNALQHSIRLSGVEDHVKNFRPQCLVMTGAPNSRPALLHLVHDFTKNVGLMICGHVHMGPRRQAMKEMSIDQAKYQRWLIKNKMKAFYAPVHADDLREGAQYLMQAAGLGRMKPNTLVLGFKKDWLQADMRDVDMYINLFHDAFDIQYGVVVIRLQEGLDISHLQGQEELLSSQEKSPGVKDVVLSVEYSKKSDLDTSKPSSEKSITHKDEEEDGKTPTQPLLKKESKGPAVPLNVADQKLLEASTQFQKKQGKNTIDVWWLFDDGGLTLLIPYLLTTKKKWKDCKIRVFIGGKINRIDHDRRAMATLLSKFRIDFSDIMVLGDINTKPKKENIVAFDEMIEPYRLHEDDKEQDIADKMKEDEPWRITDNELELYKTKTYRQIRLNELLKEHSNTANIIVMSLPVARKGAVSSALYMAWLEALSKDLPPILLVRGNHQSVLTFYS
Description: Details of this method have been published previously (O'Donnell, M. E., supra, 1989). Briefly, bovine or human TM cell monolayers on 24 well plates were equilibrated for 10 minutes at 37° C. in a Hepes-buffered minimal essential medium (MEM) containing (in mM): 144 Na, 147 Cl, 5.8 K, 1.2 Ca, 4.2 HCO3, 0.4 H2PO4, […], 0.4 SO4, 5.6 glucose and 20 Hepes. […] The assay medium also contained ^86Rb (1 μCi/ml) (Dupont New England Nuclear, Boston, Mass.). The assay was terminated by rinsing the wells with ice-cold isotonic MgCl2, then extracting the contents with 0.2% sodium dodecyl sulfate (SDS), and determining the amount of radioactive contents by liquid scintillation. Osmolarities of all preincubation and assay media were verified by osmometry (Model 3W2, Advanced Instruments, Norwood, Mass.).
The effects of hormones, neurotransmitters and second messengers on Bumetanide-sensitive K influx of bovine trabecular meshwork cells were assessed using the procedures of Example 1. […] The control is the Hepes-buffered medium containing Na, K, Cl, CA and other ions as described in Example 1B. […] The data represent the mean values±SEM of quadruplicate determinations from two experiments.

Structure (SMILES) | logP [1] | IC50 ([2]; read-out: IC50) | BUMETANIDE-SENSITIVE K INFLUX [3] | IC50 [2]
O=C(NC1CCCCCCC1)NS(=O)(=O)c1cnccc1NC1CCCCC1 [Compound 15] | 2.07 | 1400 nM |  | 
O=S(=O)(NC(=S)NC1CCCCC1)c1cnccc1NC1CCCCCC1 [Compound 20] | 1.79 | 790 nM |  | 
O=C(NC1CCCCCCC1)NS(=O)(=O)c1cnccc1NC1CCCCCC1 [Compound 16] | 2.44 | 1700 nM |  | 
CCCCCCCCCCCCCC(=O)O[C@@H]1[C@@H](C)[C@@]2(O)[C@@H](C=C(CO)C[C@]3(O)C(=O)C(C)=C[C@@H]23)[C@@H]2C(C)(C)[C@]12OC(C)=O [PMA, phorbol 12-myristate 13-acetate] |  |  | 34.0 ± 1.33 μmol/g protein/min | 
Cc1cccc(Nc2ccncc2S(=O)(=O)NC(=O)NC(C)C)c1 [Compound 7] | 0.45 | 200 nM |  | 
NC[C@H](O)c1ccc(O)c(O)c1 [NE, norepinephrine] |  |  | 18.6 ± 1.79 μmol/g protein/min | 
O=C(NC1CCCCC1)NS(=O)(=O)c1cnccc1NC1CCCCCCC1 [Compound 11] | 2.05 | 470 nM |  | 
CC(C)NC(=O)NS(=O)(=O)c1cnccc1NC1CCCCC1 [Compound 8] | 0.58 | 700 nM |  | 
O=C(NC1CCCCC1)NS(=O)(=O)c1cnccc1NC1CCCCCCCCCCC1 [Compound 18] | 3.45 | > 100000 nM |  | inactive
O=C(NC1CCCCC1)NS(=O)(=O)c1cnccc1NC1CCCCC1 [Compound 9] | 1.33 | 19000 nM |  | 
O=C(NS(=O)(=O)c1cnccc1NC1CCCCC1)N1CCCCC1 [Compound 21] | 0.62 | 320 nM |  | 
O=C(NC1CCCCCC1)NS(=O)(=O)c1cnccc1NC1CCCCC1 [Compound 12] | 1.72 | 9500 nM |  | 
O=C(NC1CCCCCC1)NS(=O)(=O)c1cnccc1NC1CCCCCC1 [Compound 13] | 2.06 | 2800 nM |  | 
O=C(NC1CCCCC1)NS(=O)(=O)c1cnccc1NC1CCCCCC1 [Compound 10] | 1.67 | 3500 nM |  | 
O=C(NC1CCCCCC1)NS(=O)(=O)c1cnccc1NC1CCCCCCC1 [Compound 14] | 2.45 | 2000 nM |  | 
CC(=O)OCOC(=O)CN(CC(=O)OCOC(C)=O)c1ccccc1OCCOc1ccccc1N(CC(=O)OCOC(C)=O)CC(=O)OCOC(C)=O [Ca-free, 1,2-bis (o-aminophenoxy)ethane-N,N,N′,N-tetraacetic acid acetoxymethyl ester] |  |  | 4.9 ± 1.06 μmol/g protein/min | 
O=C(NS(=O)(=O)c1cnccc1NC1CCCCCC1)N1CCCCC1 [Compound 22] | 1.24 | 250 nM |  | 
CC(C)NC(=S)NS(=O)(=O)c1cnccc1NC1CCCCCC1 [Compound 19] | 0.96 | 1300 nM |  | 
O=C(NC1CCCCCCC1)NS(=O)(=O)c1cnccc1NC1CCCCCCC1 [Compound 17] | 2.7 | 560 nM |  | 
O=C(NS(=O)(=O)c1cnccc1NC1CCCCCCC1)N1CCCCC1 [Compound 23] | 1.65 | 150 nM |  | 
